# Measured values from US20090317373A1, “Inhibition of the Anti-FVIII Immune Response” (Institut National De La Sante Et De La Recherche Medicale, priority 2005, published 2009).
# Key:
# [1] = system: human DCs derived from monocytes; assay: In vitro internalization of fluorescent ligands by human DCs derived from monocytes (flow cytometry); assay type: cell-based
# Description: DCs were prepared from monocytes as described previously (29) with a change in the culture media. Briefly, mononucleated cells were isolated from heparinized leukoplatelet layers (“buffy coats”) from healthy adult donors by adhesion on plastic cell culture dishes in RPMI 1640 medium supplemented with 10% human AB serum, glutamine and antibiotics for 60 minutes. Non-adhering cells were removed by 3 gentle washings with the medium. The adhering monocytes were cultured in X-VIVO 15 medium (Cambrex Bio Sciences, Paris, France) supplemented with 1% human AB serum and antibiotics and in the presence of 500 IU/ml of recombinant human interleukin-4 (rhIL-4), R&D Systems (Lille, France) and 1,000 IU/ml of recombinant human granulocyte macrophage colony-stimulating factor (rhGM-CSF), Immunotools (Friesoythe, Germany). Half of the medium, comprising all the supplements, was replaced every two days. After culture for 5 days, the non-adhering cells and those with little adhesion, corresponding to the fraction enriched in DC, were harvested, washed and used for subsequent experiments.
# Whole recombinant human FVIII (1,000 IU, Kogenate, Bayer) or B domain-deleted recombinant human FVIII (FVIII-BDD) (1,000 IU, Refacto, Wyeth) were solubilized in water and dialyzed against bicarbonate buffer (pH 9.2) containing CaCl2, 5 mM at 4° C., followed by coupling to fluorescein 5-isothiocyanate (isomer I, Sigma-Aldrich, Saint Quentin Fallavier, France) for 7-8 hours at 4° C. The labelled FVIII was then dialyzed against RPMI 1640 medium to remove non-coupled FITC. The FVIII-FITC was quantified by the Bradford method using bovine serum albumin as the standard.
# The DCs obtained in Example 1 (0.4×10^5 cells/well of a 96-well plate with 100 μl/well) were incubated with various doses (0.029, 0.057, 0.143 and 0.358 μM) of fluorescent conjugated ligands (FVIII-FITC, BDD-FVIII-FITC) obtained in Example 2 in X-VIVO medium for 0, 15, 60 and 120 min at 4° C. or at 37° C. After the incubation period, the cells were washed with cold PBS and analyzed by flow cytometry. To investigate the involvement of receptors in the internalization, the cells were preincubated for 30 min at 37° C. with […] and 1 mg/ml of mannan (Sigma-Aldrich, Saint Quentin Fallavier, France) before the addition of ligands conjugated to fluorescein. In addition to FVIII-FITC and FVIII-BDD-FITC, human α2-macroglobulin-MA (α2M) conjugated to FITC from Biomac (Leipzig, Germany), dextran-FITC (molecular weight 40,000) from Molecular Probes (Leiden, The Netherlands) and Lucifer yellow (LY-CH) from Sigma-Aldrich were used. The investigation of the internalization of FVIII was also carried out in the presence of 20 μg/ml of anti-mannose receptor monoclonal antibody (PAM-1, isotype IgG1) or anti-DC-SIGN monoclonal antibody ((AZN-D1, isotype IgG1) or mouse IgGλ,k conjugated to PE-Cy (BD Pharmingen, France). To investigate whether DC-SIGN is involved in the endocytosis of FVIII, the B lymphocyte line HD-420 transformed by wild-type EBV and transfected with DC-SIGN or not transfected was incubated with various concentrations of FVIII-FITC (0, 0.036, 0.072 and 0.143 μM) for 2 hours in RPMI 1640 medium supplemented with 10% FCS (foetal calf serum) and antibiotics. The analysis was carried out as for the DCs.
# [2] = system: DCs according to Example 1; assay: Internalization of demannosylated FVIII-BDD-FITC by DCs (FACS); assay type: cell-based, human
# Description: Finally, the inhibition of the internalization of demannosylated FVIII-BDD labelled with FITC was measured. FVIII-BDD conjugated to FITC and treated with EndoF1 (0.143 μM) or untreated is incubated with DCs according to Example 1 (4×10^5 cells/well of 100 μl) in X-VIVO medium without serum at 37° C. or at 4° C. Beforehand, the cells were preincubated, where appropriate, with mannan (1 mg/ml) for 30 min at 37° C. After incubation for 2 hours, the cells are washed and the mean intensities (mfi) are measured by FACS. The internalization of FVIII-BDD is expressed with respect to the calculated mfi in the presence of untreated FVIII alone (cf. FIG. 8).
# [3] = in the presence of mannan, FIG. 2d
substance,measurement,setting,value
mannan,neutralizing effect on the internalization of the antigen (dose dependence),"[1]; FVIII, FVIII-BDD and dextran, FIG. 2e",proportional to the dose
same,inhibition of internalization of α2M,"[1]; excess of RAP or mannan, FIG. 2f",no effect
same,blocking of internalization of dextran,[1]; [3],80%
same,effect on internalization of Lucifer yellow (ly),[1]; [3],not affected
same,inhibition of endocytosis of FVIII-BDD,"[1]; mannan 1 mg/ml, p<0.05",41.3±17.2%
same,inhibition of endocytosis of whole FVIII,"[1]; mannan 1 mg/ml, p<0.05",35.0±10.0%
same,saturation concentration for inhibition of internalization,"[1]; similar for FVIII, FVIII-BDD and dextran, FIG. 2e",100 µg/mL
same,reduction of endocytosis of FVIII by the human DCs,[1]; summary statement in Example 5,up to 40%
same,further reduction of internalization of EndoF1-treated FVIII,"[2]; in the presence of mannan, results not shown",32%
same,inhibition of the internalization of FVIII-BDD,"[2]; with mannan (1 mg/ml), without deglycosylation, FIG. 8",45±7%
